Values quoted from earlier work, collected in US20200199640A1, “PROCESS FOR OBTAINING […] A HOST CELL COMPRISING POLYNUCLEOTIDES ENCODING FOR PO[…] IN THE OMPHALOTIN BIOSYNTHESIS” (TECHNISCHE UNIVERSITÄT BERLIN, priority 2017, published 2020).
Non-standard residues stand in square brackets, D forms with d. Residues, ends and D or L forms follow the SMILES beside them. ξ: configuration not given here. NMeIle(3ξ) = CCC(C)[C@H](NC)C(=O)O; Ile(3ξ) = CCC(C)[C@H](N)C(=O)O; NMeV = CN[C@H](C(=O)O)C(C)C; Sar = CNCC(=O)O

Legend:
[1] = test system: Meloidogyne incognita; settings: literature statement (A. Mayer et al, Pestic. Sci. 1999, 55, 27-30)
[2] = literature statement (A. Mayer et al, Pestic. Sci. 1999, 55, 27-30)
[3] = literature statement (A. Mayer et al, Pestic. Sci. 1999, 55, 27-30); remark: listed apart in the source
[4] = literature statement (A. Mayer et al, Pestic. Sci. 1999, 55, 27-30); remark: listed apart in the source

CCC(C)[C@@H]1NC(=O)[C@H](C(C)C)N(C)C(=O)[C@H](Cc2c[nH]c3ccccc23)NC(=O)CN(C)C(=O)[C@H](C(C)CC)N(C)C(=O)[C@H](C(C)C)NC(=O)CN(C)C(=O)[C@H](C(C)CC)N(C)C(=O)[C@H](C(C)C)N(C)C(=O)CN(C)C(=O)[C@H](C(C)C)N(C)C(=O)[C@H](C(C)C)N(C)C1=O (stereo partly shown) [Omphalotin A] (cyclo([Ile(3ξ)][NMeV][NMeV][Sar][NMeV][NMeIle(3ξ)][Sar]V[NMeIle(3ξ)][Sar]W[NMeV]))
activity against the plant pathogen nematode Meloidogyne incognita [1]: strong and selective activity
phytotoxic activity [2]: no further phytotoxic, antibacterial or antifungal activities
antibacterial activity [3]: no further phytotoxic, antibacterial or antifungal activities
antifungal activity [4]: no further phytotoxic, antibacterial or antifungal activities
